# Columns and labels:
# [1] = SOD activity (McCord and Fridovich); assay type: biochemical; settings: In vitro Biochemistry
# Procedure: SOD activity can be monitored in the presence and absence of EDTA using the method of McCord and Fridovich (J. Biol. Chem. 244:6049 (1969)). The efficacy of a mimetic can be determined by measuring the effect of the mimetic on the growth of a SOD null E. coli strain versus a wild type strain. Specifically, wild type E. coli (AB1157) and SOD null E. coli. (JI132) can be grown in M9 medium containing 0.2% casamino acids and 0.2% glucose at pH 7.0 and 37° C.; growth can be monitored in terms of turbidity followed at 700 nm spectrophotometrically. Active mimetics can be tested for toxicity in mammalian cell culture by measuring lactate dehydrogenase (LDH) release. Specifically, rat L2 cells (a lung Type II like cell; (Kaighn and Douglas, J. Cell Biol. 59:106a (1973)) can be grown in Ham's F-12 medium with 10% fetal calf serum supplement at pH 7.4 and 37° C.; cells can be seeded at equal densities in 24 well culture dishes and grown to approximately 90% confluence; SOD mimetics can be added to the cells at log doses (eg micromolar doses in minimal essential medium (MEM)) and incubated for 24 hours. Toxicity can be assessed by morphology and by measuring the release of the cytosolic injury marker, LDH (eg on a thermokinetic plate reader), as described by Vassault (In: Methods of Enzymatic Analysis, Bergmeyer (ed) pp. 118-26 (1983); oxidation of NADH is measured at 340 nm). Efficacy of active mimetics can be assessed by determining their ability to protect mammalian cells against methylviologen (paraquat)-induced toxicity. Specifically, rat L2 cells grown as described above and seeded into 24 well dishes can be pre-incubated with various concentrations of the SOD mimetic and then incubated with a concentration of methylviologen previously shown to produce an LC75 in control L2 cells. Efficacy of the mimetic can be correlated with a decrease in the methylviologen-induced LDH release (St. Clair et al, FEBS Lett. 293:199 (1991)). The efficacy of SOD mimetics can be tested in vivo with mouse and/or rat models using both aerosol administration and parenteral injection. For example, male Balb/c mice can be randomized into 4 groups of 8 mice each to form a standard 2×2 contingency statistical model. Animals can be treated with either paraquat (40 mg/kg, ip) or saline and treated with SOD mimetic or vehicle control. Lung injury can be assessed 48 hours after paraquat treatment by analysis of bronchoalveolar lavage fluid (BALF) damage parameters (LDH, protein and % PMN) as previously described (Hampson et al, Tox. Appl. Pharm. 98:206 (1989); Day et al, J. Pharm. Methods 24:1 (1990)). […]
# ^2SOD activity determined as described by McCord and Fridovich, J. Biol. Chem. […] (1969).
# [2] = Catalase activity, Clark oxygen electrode; assay type: biochemical; settings: 1 mM hydrogen peroxide; oxygen formation over 2 minutes
# Description: Catalase activity can be monitored by measuring absorbance at 240 nm in the presence of hydrogen peroxide (see Beers and Sizer, J. Biol. Chem. 195:133 (1952)) or by measuring oxygen evolution with a Clark oxygen electrode (Del Rio et al, Anal. Biochem. 80:409 (1977)). Peroxidase activity can be measured spectrophotometrically as previously described by Putter and Becker: Peroxidases. In: Methods of Enzymatic Analysis, H. U. Bergmeyer (ed.), Verlag Chemie, Weinheim, pp. 286-292 (1983. Aconitase activity can be measured as described in Example XI below.
# Catalase activity was measured by means of a Clark oxygen electrode using a modified assay previously described by Del Rio et al, Anal. Biochem. 80:409 (1977). Briefly, reactions were performed in a nitrogen degassed phosphate buffer (50 mM, pH 7.8) containing 0.1 mM EDTA at 25° C. Three concentrations of hydrogen peroxide (1-4 mM) and four metalloporphyrin concentrations (0.5-50 μM) were used to determine second order rate constants. The rate of oxygen evolution was followed for 2 minutes.
# ^3Catalase activity determined as described by Del Rio et al, Anal. Biochem. 80:409 )1977). Metalloporphyrins were assayed at various concentrations in the presence of 1 mM hydrogen peroxide for catalase-like activity. A Clark electrode was used to measure the formation of oxygen from the breakdown of hydrogen peroxide over a period of 2 minutes.
# rat cortical cells = assay: Neurotoxicity (LDH release) in cortical cell culture; assay type: cell-based
# Procedure: (§1) Tissue culture: Mixed neuronal and glial cultures were prepared from embryonic day-18 rat cerebral cortices (Sprague-Dawley, Zivic Miller). Briefly, the cerebral cortices were dissected and enzymatically dissociated by incubation in Ca^++-, Mg^++-free Hank's balanced salt solution (HBSS) supplemented with 10 mM HEPES and 0.25% trypsin for 20 min. at 37° C. The tissue was rinsed and dispersed into single cell suspension by gentle passage through a fire polished Pasteur pipette. The cell suspension was centrifuged and resuspended in Minimum Essential Media (MEM), containing Earle's salts supplemented with 3 g/L glucose, 5% horse serum and 5% fetal bovine serum (growth media). The cells were plated in poly-D-lysine-coated multi-well plates: 12-well plates for aconitase measurement, and 24 well plates for toxicity experiments. Cells were maintained at 37° C. in a humidified incubator with 5% CO2/95% air in growth media. Media was not replaced so as to reduce glial overgrowth and neuronal loss. Mature cells (14-17 days in vitro) were used for all experiments.
# (§2) Cell treatment: The growth media was replaced with MEM supplemented with 25 mM glucose (MEM-g). For both neurotoxicity studies and aconitase measurement, cells were incubated in the designated treatment for the indicated length of time at 37° C. Unless otherwise specified, antagonists or SOD-mimetics were added 15 min. prior to agonists. For measurement of neurotoxicity, cells were incubated with treatments for 18 hr at 37° C. in MEM-g. To access the ability of antagonists to inhibit acute NMDA toxicity or rescue cells from an ongoing NMDA insult, an alternate paradigm of NMDA treatment was used in addition to the one describe above. In this paradigm, growth media was replaced with HBSS^+ (Ca^++-, Mg^++-free Hank's Balanced Salt Solution supplemented with 2 mM CaCl2, 1 mM NaHCO3, 10 mM HEPES and 5 μM glycine), cells were treated with vehicle or 100 μM NMDA for 15 min. after which HBSS^+ was replaced with MEM-g and cells were returned to the incubator for 18 additional hrs. Antagonsists or SOD-mimetics were added to the cells 15 min. before NMDA exposure or 15, 30 or 60 min. following final media replacement. For determination of Ca^++-dependence, cells were incubated in HBSS^+ with no added Ca^++. When kainate (KA) was used as an agonist, 100 μM D-APV was routinely included to block secondary NMDA receptor activation. Catalase (100 U/ml) was always included when xanthine plus xanthine oxidase (X+XO) was used as a treatment to rule out the contribution of hydrogen peroxide.
# Neurotoxicity studies: Neurotoxicity was determined by the measurement of LDH released in the supernatant media as previously described (Patel et al, Toxicol. Appl. Pharmacol. 115:124 (1991) and Neurotoxicology 14:35 (1992)). LDH was measured by the method of Vassault, Lactate dehydrogenase. In: Methods of Enzymatic Analysis, Bergmeyer HU (ed), Verlag Chemie, Weinheim, pp. 118-126 (1983). Additionally, cell death was confirmed with ethidium-1 homodimer (EthD-1). Briefly, the cells were washed with HBSS, loaded with 20 μM EthD-1 for 30 min,. rinsed and viewed through fluorescence optics. The number of dead cells labeled with EthD-1 were counted in 4-6 randomly selected fields, the numbers averaged to give an estimate of cell death and the experiment was repeated 3 times.
# aconitase = assay: Aconitase activity in cortical cell lysates; assay type: cell-based, rat; settings: 1 mM NOS inhibitor
# Procedure: as §1, §2
# Aconitase measurement: For the measurement of aconitase, following treatment with agents, media was removed and cells lysed in ice-cold 50 mM, Tris/HCl, pH 7.4 containing 0.6 mM MnCl2, 1 mM L-cysteine, 1 mM citrate and 0.5% Triton-X 100. The aconitase activity of cell lysates was measured spectrophotometrically by monitoring the formation of cis-aconitate from isocitrate at 240 nm in 50 mM Tris/HCl, pH 7.4, containing 0.6 mM MnCl2 and 20 mM isocitrate at 25° C. (Kreb and Holzach, Biochem. J. 52:527 (1952); Gardner and Fridovich, J. Biol. Chem. 267:8757 (1992)). […] Aconitase activity in cortical cell lysates was inhibited by 0.1 mM potassium ferricyanide or by boiling of sample.
# J774 macrophages [3] = assay: Mitochondrial respiration (MTT) in J774 macrophages; assay type: cell-based; settings: LPS-treated and LPS and IFN-treated cells, 24 h
# Procedure: (§3) Cell culture: J774 macrophages were cultured in DMEM medium, supplemented with L-glutamine (3.5 mmol/L) and 10% fetal calf serum. Cells were cultured in 96-well plates (200 μl medium/well) until confluence. To induce the inducible isoform of nitric oxide synthase (iNOS), fresh culture medium containing E. coli LPS (011:B4, 10 μg/ml) alone or in combination with murine γ-interferon (γ-IFN, 10 U/ml) was added in the presence or absence of the NOS inhibitor, the SOD mimetic of the combination of the two compounds for 24 h. Moreover, cells were exposed to the NO donor compounds S-nitroso-N-acetyl-DL-penicillamine (SNAP) (3 mM) and diethylamine:NO NONOate (DNO) (3 mM) for 24 h or to authentic peroxynitrite (1 mM) for 1 h). Nitride/nitrate concentration in the medium and mitochondrial respiration were then measured as described below.
# Measurement of mitochondrial respiration: Cell respiration was assessed by the mitochondrial-dependent reduction of 3-(4,5-dimethylthiazol-2-yl)-2,5-diphenyltetrazolium bromide (MTT) to formazan. Cells in 96-well plates were incubated at 37° C. with MTT (0.2 mg/ml) for 1 hour. Culture medium was removed by aspiration and the cells were solubilized in DMSO (100 μl). The extent of reduction of MTT to formazan within cells was quantitated by the measurement of OD550. All measurements were corrected for the interference of MnTBAP at this wavelength.
# J774 macrophages [4] = assay: Nitrite/nitrate production in J774 macrophages; assay type: cell-based
# Procedure: as §3
# Measurement of nitrite/nitrate production: Nitride/nitrate production, an indicator of NO synthesis, was measured in the supernatant. First, nitrate in the culture medium was reduced to nitrite by incubation with nitrate reductase (670 mU/ml) and NADPH (160 μM) at room temperature for 2 h. After 2 h, nitrite concentration in the samples were measured by the Griess reaction, by adding 100 μl of Griess reagent (1% sulfanilamide and 0.1% naphthylethylenediamide in 5% phosphoric acid) to 100 μl samples of conditioned medium. The optical density at 550 nm (OD550) was measured using a Spectramax 250 microplate reader (Molecular Devices, Sunnyvale, Calif.) Nitrate concentrations were calculated by comparison with OD550 of standard solutions of sodium nitrate prepared in culture medium. All measurements were corrected for the interference of MnTBAP at this wavelength.
# [5] = test system: Rat pulmonary epithelial cell cultures (L2); assay: Paraquat-induced injury of L2 cells, LDH release; assay type: cell-based; settings: 100 μM; Paraquat 2.5 mM, 48 hours
# [6] = test system: Calf pulmonary endothelial cell (CPA-47) line; assay: Glucose oxidase hydrogen peroxide injury of CPA-47, Cr^51 release; assay type: cell-based; settings: glucose oxidase 100 Mu/ml, 4 hours; 1 hour pretreatment
# Procedure: (§4) Calf pulmonary endothelial cell (CPA-47) line was grown to near confluence in 12-well plates with F-12K medium containing 10% fetal calf serum. CPA-47 cells were loaded with Cr^51 as previously described by Simon et al J. Clin. Invest. 78:1375 (1986) in high glucose minimum essential medium (DMEM). Cells were pretreated with MnTBAP (100 μM) for 1 hour and then exposed to various concentrations of hydrogen peroxide generator, glucose oxidase, for 4 hours. Cell injury was then quantitated as the specific Cr^51 release from CPA-47 cells which has been adjusted for spontaneous Cr51 release.
# as §4, with “(J.” for “J.”, “(1986))” for “(1986)”, “various concentrations of either: (A) MnTBAP; (B) MnTMPyP; (C) ZnTBAP; or (D) CuZnSOD” for “MnTBAP (100 μM)”, “the” for “various concentrations of”, “oxidase (100 Mu/ml),” for “oxidase,”, “Cr^51” for “Cr51”
molecule,measurement,setting,value
"3,3′3″,3′″-Tetramethoxy-4,4′,4″,4′″-(porphine-5,10,15,20-tetrayl)tetrakis (benzoic acid) [Compound 10305]",SOD,[1],inactive
same,Catalase,[2],2.2 min⁻¹
"CNC(=N)NCCC[C@H](N)C(=O)O [L-NMA, N^G-methyl-L-arginine, reference compound]",NMDA-induced LDH release,rat cortical cells; 1 mM NOS inhibitor,unchanged
same,NMDA-induced aconitase inactivation,aconitase,unchanged
same,immunostimulation-induced suppression of mitochondrial respiration,J774 macrophages [3],restoration of the respiration to an extent comparable with that of 300 μM MnTBAP
same,change of inhibition of nitrite/nitrate accumulation when applied 6 h after LPS,J774 macrophages [4]; LPS-stimulated macrophages,similar
same,inhibition of the production of NO,J774 macrophages [4]; cells stimulated with LPS or LPS and IFN,near-complete inhibition
"C[n+]1ccc(-c2c3nc(c(-c4cc[n+](C)cc4)c4ccc([n-]4)c(-c4cc[n+](C)cc4)c4nc(c(-c5cc[n+](C)cc5)c5ccc2[n-]5)C=C4)C=C3)cc1.[Mn+3] [MnTMPyP, Mn(III) tetrakis (1-methy-4-pyridyl)porphyrin]",paraquat-induced LDH release,[5],decrease paraquat-induced LDH release
same,hydrogen peroxide-induced endothelial cell injury,[6],reduction
"Tetra (N,N-dimethyl) 4,4′,4″,4′″-(porphine-5,10,15,20-tetrayl)-tetrakis(benzamide) manganese (III) chloride [Compound 10109]",SOD,[1],470 μg/USOD
same,Catalase,[2],0.59 min⁻¹
"Trimethyl 2,2′,2″, 2′″-tetrahydroxy-4-benzoic acid-4″, 4″, 4′″ (porphine -5,10,15,20-tetrayl)tribenzoate manganese (III) chloride [Compound 10303]",SOD,[1],78 μg/USOD
same,Catalase,[2],1.4 min⁻¹
same,protection against NMDA-induced excitotoxicity,"rat cortical cells; NMDA 50 μM, 25 μM compound",100%
same,protection against kainate-induced excitotoxicity,"rat cortical cells; kainate 300 μM, 100 μM compound",100%

# Source: patent US6583132B1, “Oxidant scavengers” (Duke University, priority 1993, dated 2003)
